# What was measured:
# [1] = test system: propagated tumors from Her2-dependent inducible spontaneous breast tumors; experiment: Drug response assay with propagated Her2-dependent primary breast tumors; type: in vivo, mouse; conditions: 15 or 30 mg/kg, three doses at 5-day intervals, one week after last dosing
# Experimental: From each primary tumor, about 0.1 million cells/site were injected sub-cutaneously into 30 sites on immunocompromised mice, which were then fed with doxycycline water. Each mouse received two injections, one on each side of its back (subcutaneous). Thus, one primary tumor was expanded into 30 propagated tumors onto 15 mice, each of the mice developing two tumors on its back. Out of these thirty tumors, 10 tumor-bearing mice were treated with vehicle (5 parts Tween-80, 5 parts absolute ethyl alcohol, 90 parts 5% dextrose), another 10 tumor bearing-mice were treated with 15 mg/kg docetaxel (Biochemika, cat. No. 01885), and the remaining 10 tumor-bearing mice were treated with 30 mg/kg docetaxel (which was already determined to be near MTD for this drug). In total, five primary tumors were expanded to 150 tumors in 75 animals.
# When the tumors reached approximately 5 mm^3 in size, the treatments were begun. The animals were given three doses with 5-day intervals. The experiment was terminated one week after the final dosing. Among propagated tumors derived from any given primary tumor, uniformity in terms of latency, growth rate and drug response was expected (intra-tumoral uniformity). In contrast, among propagated tumors derived from different primary tumors variation in terms of growth rate, latency and drug response was expected (inter-tumoral variation). […]
# [2] = Maximum tolerated dose (previously determined); conditions: mouse, in vivo; already determined to be near MTD for this drug
smiles,measurement,setting,value
CC(=O)O[C@@]12CO[C@@H]1C[C@H](O)[C@@]1(C)C(=O)[C@H](O)C3=C(C)[C@@H](OC(=O)[C@H](O)[C@@H](NC(=O)OC(C)(C)C)c4ccccc4)C[C@@](O)([C@@H](OC(=O)c4ccccc4)[C@H]21)C3(C)C [docetaxel],drug response (tumor size vs vehicle),[1]; propagated tumors from one of the five primary tumors,significant reduction in tumor growth
same,drug response (tumor size vs vehicle),[1]; propagated tumors from the remaining four of five primary tumors,did not show any effect
same,MTD,[2],~30 mg/kg
